Read-outs that look alike come from different tables or passages of the source.
Target: T1, BRM (Homo sapiens, UniProt P51531)
T1 construct: In-Cell Western Screen of BRM Degradation in SW1573 Cells; endogenous in cells; host or cells: SW1573
Assay: In-cell Western screen of BRM degradation in SW1573 cells (Dmax and DC50)
Format: cell-based
Summary of the method: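 SW1573 cells were treated with compound overnight (18-20 h; final DMSO 0.1%), then fixed in 4% PFA, permeabilized with Triton X-100 and blocked. BRM was detected by in-cell Western using 800 nm anti-rabbit and 680 nm anti-mouse secondaries, and Dmax and DC50 were derived from the LI-COR Odyssey signal.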

[1] = BRM degradation, SW1573 cells, Table 2D, read-out: *DC50
[2] = SW1573, % degraded, when tested at the top concentration of between 0.3 and 10 μM, read-out: BRM Dmax (%)
[3] = target protein degradation, read-out: BRM DC50
[4] = BRM degradation, SW1573 cells, read-out: DC50
[5] = BRM degradation, SW1573 cells, when tested at the top concentration of between 0.3 and 10 μM, read-out: Dmax (%) (% degraded)

T1 sequence (P51531 whole entry): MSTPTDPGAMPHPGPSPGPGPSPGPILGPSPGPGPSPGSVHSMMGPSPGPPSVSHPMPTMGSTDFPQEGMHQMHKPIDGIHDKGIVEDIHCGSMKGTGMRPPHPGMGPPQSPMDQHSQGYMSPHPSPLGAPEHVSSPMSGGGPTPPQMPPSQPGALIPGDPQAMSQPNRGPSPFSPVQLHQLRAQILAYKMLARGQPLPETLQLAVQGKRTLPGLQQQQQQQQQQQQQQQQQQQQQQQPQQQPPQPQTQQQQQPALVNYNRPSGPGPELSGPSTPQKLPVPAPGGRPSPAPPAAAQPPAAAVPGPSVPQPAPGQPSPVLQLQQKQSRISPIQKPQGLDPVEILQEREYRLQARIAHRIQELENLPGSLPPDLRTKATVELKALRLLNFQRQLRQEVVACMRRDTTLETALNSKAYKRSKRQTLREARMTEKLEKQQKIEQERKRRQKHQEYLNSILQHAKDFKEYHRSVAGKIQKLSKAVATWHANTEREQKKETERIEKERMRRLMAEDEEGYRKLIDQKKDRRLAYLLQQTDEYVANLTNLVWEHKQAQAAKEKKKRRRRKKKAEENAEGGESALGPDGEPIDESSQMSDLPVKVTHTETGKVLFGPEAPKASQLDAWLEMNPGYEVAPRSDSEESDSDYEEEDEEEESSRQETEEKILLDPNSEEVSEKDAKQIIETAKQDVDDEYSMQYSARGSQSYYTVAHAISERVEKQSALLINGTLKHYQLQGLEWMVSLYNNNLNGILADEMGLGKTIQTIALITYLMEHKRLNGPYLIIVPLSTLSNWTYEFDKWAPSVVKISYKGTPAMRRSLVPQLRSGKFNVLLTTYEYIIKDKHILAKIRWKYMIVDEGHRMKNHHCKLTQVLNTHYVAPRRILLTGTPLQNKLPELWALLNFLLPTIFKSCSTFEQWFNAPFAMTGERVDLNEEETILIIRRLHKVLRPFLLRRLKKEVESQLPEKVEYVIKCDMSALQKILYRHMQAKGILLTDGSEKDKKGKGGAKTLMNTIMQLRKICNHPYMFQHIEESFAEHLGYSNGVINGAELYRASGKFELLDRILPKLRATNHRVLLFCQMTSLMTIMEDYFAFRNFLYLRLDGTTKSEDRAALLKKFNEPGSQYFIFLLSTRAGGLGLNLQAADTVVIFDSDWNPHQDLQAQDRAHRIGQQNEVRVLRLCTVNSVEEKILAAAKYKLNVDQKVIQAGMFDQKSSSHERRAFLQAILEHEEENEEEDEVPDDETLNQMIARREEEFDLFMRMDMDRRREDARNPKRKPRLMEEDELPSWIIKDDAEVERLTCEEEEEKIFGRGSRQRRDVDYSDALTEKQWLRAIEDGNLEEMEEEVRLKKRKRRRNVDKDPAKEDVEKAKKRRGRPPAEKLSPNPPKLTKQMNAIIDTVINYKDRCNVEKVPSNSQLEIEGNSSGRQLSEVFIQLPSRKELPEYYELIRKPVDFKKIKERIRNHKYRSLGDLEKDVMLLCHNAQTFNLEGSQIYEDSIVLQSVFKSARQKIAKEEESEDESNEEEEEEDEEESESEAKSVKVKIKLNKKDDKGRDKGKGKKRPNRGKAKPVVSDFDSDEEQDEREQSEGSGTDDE

Row | Compound | DC50 [4] [nM] | Dmax [5] [%] | also measured
1 | Cc1ncsc1-c1ccc([C@H](C)NC(=O)[C@@H]2C[C@@H](O)CN2C(=O)[C@@H](c2cc(OCC[C@H]3CCN(C[C@H]4C[C@H](Oc5cc(N6C7CCC6CN(c6cc(-c8ccccc8O)nnc6N)C7)ccn5)C4)[C@@H](C)C3)no2)C(C)C)cc1 [compound 548, (2S,4R)-1-((2R)-2-(3-(2-((2S,4S)-1-(((1r,3S)-3-((4-(3-(3-amino-6-(2-hydroxyphenyl)pyridazin-4-yl)-3,8-diazabicyclo[3.2.1]octan-8-yl)pyridin-2-yl)oxy)cyclobutyl)methyl)-2-methylpiperidin-4-yl)ethoxy)isoxazol-5-yl)-3-methylbutanoyl)-4-hydroxy-N-((S)-1-(4-(4-methylthiazol-5-yl)phenyl)ethyl)pyrrolidine-2-carboxamide] | – | – | Dmax (BRM degradation, SW1573 cells, Table 2D, read-out: **Dmax (%) (% degraded)): > 75%; DC50 [1]: < 2.5 nM
2 | Cc1ncsc1-c1ccc([C@H](C)NC(=O)[C@@H]2C[C@@H](O)CN2C(=O)[C@H](c2cc(N3CCN(CC4CCN(C[C@H]5C[C@H](Oc6cc(N7C8CCC7CN(c7cc(-c9ccccc9O)nnc7N)C8)ccn6)C5)CC4)CC3)no2)C(C)C)cc1 [compound 457, (2S,4R)-1-((2S)-2-(3-(4-((1-(((1r,3r)-3-((4-(3-(3-amino-6-(2-hydroxyphenyl)pyridazin-4-yl)-3,8-diazabicyclo[3.2.1]octan-8-yl)pyridin-2-yl)oxy)cyclobutyl)methyl)piperidin-4-yl)methyl)piperazin-1-yl)isoxazol-5-yl)-3-methylbutanoyl)-4-hydroxy-N-((S)-1-(4-(4-methylthiazol-5-yl)phenyl)ethyl)pyrrolidine-2-carboxamide] | – | – | Dmax [2]: > 75%; DC50 [3]: < 2.5 nM
3 | Cc1ncsc1-c1ccc([C@H](C)NC(=O)[C@@H]2C[C@@H](O)CN2C(=O)[C@H](c2cc(N3CCC(CN4CCC(O[C@H]5C[C@H](N6CCOC7(CCN(c8cc(-c9ccccc9O)nnc8N)CC7)C6)C5)CC4)CC3)no2)C(C)C)cc1 [compound 617, (2S,4R)-1-((S)-2-(3-(4-((4-((1r,3r)-3-(9-(3-amino-6-(2-hydroxyphenyl)pyridazin-4-yl)-1-oxa-4,9-diazaspiro[5.5]undecan-4-yl)cyclobutoxy)piperidin-1-yl)methyl)piperidin-1-yl)isoxazol-5-yl)-3-methylbutanoyl)-4-hydroxy-N-((S)-1-(4-(4-methylthiazol-5-yl)phenyl)ethyl)pyrrolidine-2-carboxamide] | – | – | DC50 [1]: > 30 nM
4 | Cc1ncsc1-c1ccc([C@H](C)NC(=O)[C@@H]2C[C@@H](O)CN2C(=O)[C@H](c2cc(OCCN3CCN(CCOc4cc(N5C6CCC5CN(c5cc(-c7ccccc7O)nnc5N)C6)ccn4)CC3)no2)C(C)C)cc1 [compound 46, (2S,4R)-1-[(2S)-2-[3-[2-(4-[2-[(4-[3-[3-amino-6-(2-hydroxyphenyl)pyridazin-4-yl]-3,8-diazabicyclo[3.2.1]octan-8-yl]pyridin-2-yl)oxy]ethyl]piperazin-1-yl)ethoxy]-1,2-oxazol-5-yl]-3-methylbutanoyl]-4-hydroxy-N-[(1S)-1-[4-(4-methyl-1,3-thiazol-5-yl)phenyl]ethyl]pyrrolidine-2-carboxamide] | > 30 | 50 to 75 | –
5 | Cc1ncsc1-c1ccc(CNC(=O)[C@@H]2C[C@@H](O)CN2C(=O)[C@@H](NC(=O)COCCOCCOCCOc2cncc(N3C4CCC3CN(c3cc(-c5ccccc5O)nnc3N)C4)n2)C(C)(C)C)cc1 [compound 34, (2S,4R)-1-[(2S)-2-[1-(6-[3-[3-amino-6-(2-hydroxyphenyl)pyridazin-4-yl]-3,8-diazabicyclo[3.2.1]octan-8-yl]pyrazin-2-yl)-1,4,7,10-tetraoxadodecan-12-amido]-3,3-dimethylbutanoyl]-4-hydroxy-N-[[4-(4-methyl-1,3-thiazol-5-yl)phenyl]methyl]pyrrolidine-2-carboxamide] | > 30 | > 75 | –
6 | COCC[C@H](NC(=O)[C@@H]1C[C@@H](O)CN1C(=O)[C@@H](c1cc(N2CCC(CN3CCC(O[C@H]4C[C@H](Oc5cc(N6C7CCC6CN(c6cc(-c8ccccc8O)nnc6N)C7)ccn5)C4)CC3)CC2)no1)C(C)C)c1ccc(-c2scnc2C)cc1 [compound 670, (2S,4R)-1-((2R)-2-(3-(4-((4-((1r,3r)-3-((4-(3-(3-amino-6-(2-hydroxyphenyl)pyridazin-4-yl)-3,8-diazabicyclo[3.2.1]octan-8-yl)pyridin-2-yl)oxy)cyclobutoxy)piperidin-1-yl)methyl)piperidin-1-yl)isoxazol-5-yl)-3-methylbutanoyl)-4-hydroxy-N-((S)-3-methoxy-1-(4-(4-methylthiazol-5-yl)phenyl)propyl)pyrrolidine-2-carboxamide] | < 2.5 | – | Dmax (BRM degradation, SW1573 cells, read-out: Dmax (% degraded)): > 75%
7 | Cc1ncsc1-c1ccc([C@H](C)NC(=O)[C@@H]2C[C@@H](O)CN2C(=O)[C@@H](c2cc(OCC[C@H]3CC[C@H](O[C@H]4C[C@H](Oc5cc(N6C7CCC6CN(c6cc(-c8ccccc8O)nnc6N)C7)ccn5)C4)CC3)no2)C(C)C)cc1 [compound 488, (2S,4R)-1-((2R)-2-(3-(2-((1R,4R)-4-((1r,3R)-3-((4-(3-(3-amino-6-(2-hydroxyphenyl)pyridazin-4-yl)-3,8-diazabicyclo[3.2.1]octan-8-yl)pyridin-2-yl)oxy)cyclobutoxy)cyclohexyl)ethoxy)isoxazol-5-yl)-3-methylbutanoyl)-4-hydroxy-N-((S)-1-(4-(4-methylthiazol-5-yl)phenyl)ethyl)pyrrolidine-2-carboxamide] | – | – | Dmax [2]: > 75%; DC50 [3]: < 2.5 nM
8 | Cc1ncsc1-c1ccc([C@H](C)NC(=O)[C@@H]2C[C@@H](O)CN2C(=O)[C@H](c2cc(OCCN3CCN(Cc4ccc(C(C)n5cc(-c6cc(-c7ccccc7O)nnc6N)cn5)cc4)CC3)no2)C(C)C)cc1 (stereo partly drawn) [compound 166, (2S,4R)-1-((2S)-2-(3-(2-(4-(4-(1-(4-(3-amino-6-(2-hydroxyphenyl)pyridazin-4-yl)-1H-pyrazol-1-yl)ethyl)benzyl)piperazin-1-yl)ethoxy)isoxazol-5-yl)-3-methylbutanoyl)-4-hydroxy-N-((S)-1-(4-(4-methylthiazol-5-yl)phenyl)ethyl)pyrrolidine-2-carboxamide] | 2.5 to 10 | – | Dmax (BRM degradation, SW1573 cells, tested at the top concentration of between 0.3 and 10 μM, read-out: Dmax (%) (% degraded)): > 75%
9 | Cc1ncsc1-c1ccc(CNC(=O)[C@@H]2C[C@@H](O)CN2C(=O)[C@H](c2cc(OCCN3CCN(CCCc4cc(N5C6CCC5CN(c5cc(-c7ccccc7O)nnc5N)C6)ccn4)CC3)no2)C(C)C)cc1 [compound 43, (2S,4R)-1-[(2S)-2-[3-(2-[4-[3-(4-[3-[3-amino-6-(2-hydroxyphenyl)pyridazin-4-yl]-3,8-diazabicyclo[3.2.1]octan-8-yl]pyridin-2-yl)propyl]piperazin-1-yl]ethoxy)-1,2-oxazol-5-yl]-3-methylbutanoyl]-4-hydroxy-N-[[4-(4-methyl-1,3-thiazol-5-yl)phenyl]methyl]pyrrolidine-2-carboxamide] | – | < 50 | –
10 | Cc1ncsc1-c1ccc([C@H](C)NC(=O)[C@@H]2C[C@@H](O)CN2C(=O)[C@@H](NC(=O)COCCCc2ccc(C(C)n3cc(-c4cc(-c5ccccc5O)nnc4N)cn3)cn2)C(C)(C)C)cc1 (stereo partly drawn) [compound 61, (2S,4R)-1-((2S)-2-(2-(3-(5-(1-(4-(3-amino-6-(2-hydroxyphenyl)pyridazin-4-yl)-1H-pyrazol-1-yl)ethyl)pyridin-2-yl)propoxy)acetamido)-3,3-dimethylbutanoyl)-4-hydroxy-N-((S)-1-(4-(4-methylthiazol-5-yl)phenyl)ethyl)pyrrolidine-2-carboxamide] | 10 to 30 | > 75 | –

Source: patent US12539292B2, “BRM targeting compounds and associated methods of use” (Arvinas Operations, Inc., priority 2018, dated 2026)
